Measurements from patent publication US20260125359A1, “HETEROARYL COMPOUNDS AS MULTI-TARGET PROTEIN KINASE INHIBITORS” (FUJIAN HAIXI PHARMACEUTICALS CO., LTD., priority 2023, published 2026).

How the values were obtained:
[1] = molecular target: PDGFR-α (Homo sapiens, UniProt P16234); experiment: PDGFR-α in vitro kinase activity assay (HTRF kinEASE TK); type: biochemical; details: for inhibition at 0.01 µM: compound 10 nM, read-out: PDGFRα inhibition rate, 10 nM; for inhibition at 0.1 µM: compound 100 nM, read-out: PDGFRα inhibition rate, 100 nM
Description: (§1) CSF-1R, PDGFR-α, KDR (VEGFR2) and KIT in vitro Kinase Activity Assay:
(§2) • ENVISION (Perkinelmer, 2104) • White 384-well MicroPlate (Cat #264706, Nunc) • HTRF kinEASE TK kit main reagents (Cat #62TKOPEC, Cisbio) • TK-biotin substrate • Streptavidin-XL665 • TK Antibody-Cryptate • 5× Enzymatic buffer (5×KB) • Staphylococcal enterotoxin B (SEB) • HTRF Detection buffer • CSF-1R (Cat #PV3249, Invitrogen) • PDGFR-α (Cat #PV3811, Invitrogen) • KDR (Cat #PV3660, Invitrogen) • KIT (Cat #08-156, Carna) • ATP 10 mM (Cat #PV3227, Invitrogen) • DTT 1 M (Cat #D5545, Sigma) • MgCl2 1 M (Cat #M8266, Sigma) • MnCl2 1 M (Cat #244589, Sigma)
(§3) Dilute Substrate-TK and ATP to 5× of the reaction concentration using 1× Kinase Buffer.
(§4) Prepare the 5× enzyme working solution using 1× Kinase Buffer.
(§5) Prepare the 4×Sa-XL665 working solution using Detection Buffer.
(§6) Dilute TK-Ab-Cryptate 100 times using Detection Buffer to prepare the working solution.
(§7) After all reagents were prepared according to the methods described above, except for the enzyme, they were equilibrated to room temperature before starting the sample addition. • a) First, 2.5% DMSO solutions were prepared separately using the pre-prepared 1× kinase buffer (DMSO concentrations that were too high could affect the reaction, so the final concentration of DMSO was controlled at 1%). Then, the corresponding 2.5% DMSO solution for the enzyme was used to dilute the test compounds. Compounds were screened with two concentrations of 100 nM and 10 nM. Except for the control wells, 4 μL of the diluted test compound solution was added to the reaction wells, and 4 μL of the pre-prepared 2.5% DMSO solution was added to the control wells. • b) 2 μL of the pre-prepared TK-biotin substrate solution at the corresponding concentration for the kinase was added to all reaction wells. • c) 2 μL of the pre-prepared enzyme solution at the corresponding concentration was added to all reaction wells except the negative control wells. For the negative control wells, 2 μL of 1× kinase buffer corresponding to the enzyme was added to make up the volume. The plate was sealed with sealing film, mixed gently, and incubated at room temperature for 10 min to allow the compounds to fully interact with the enzyme. • d) 2 μL of the ATP solution at the corresponding concentration for the enzyme was added to all reaction wells to initiate the kinase reaction. ATP concentrations and reaction times for enzyme screening are shown in Table 26 • e) Five minutes before the end of the kinase reaction, the detection solution was prepared. The detection buffer from the kit was used to prepare detection solutions for Streptavidin-XL665 and TK antibody europium cryptate (1:100) at the appropriate concentrations for the two enzymes. • f) After the kinase reaction was completed, 5 μL of the diluted Streptavidin-XL665 solution was added to all reaction wells. After mixing, the diluted TK antibody europium cryptate detection solution was immediately added. • g) The plate was sealed and mixed, incubated at room temperature for 1 hour, and the fluorescence signal was detected using the ENVISION (PerkinElmer) instrument (excitation at 320 nm, emission at 665 nm and 615 nm). The inhibition rate for each well was calculated based on the full-activity control wells and background signal wells, and the average value of the replicates was taken.

[2] = molecular target: KIT (Homo sapiens, UniProt P10721); experiment: KIT in vitro kinase activity assay (HTRF kinEASE TK); type: biochemical; details: for inhibition at 0.01 µM: compound 10 nM, read-out: KIT inhibition rate, 10 nM; for inhibition at 0.1 µM: compound 100 nM, read-out: KIT inhibition rate, 100 nM
Description: as §1, §2, §3, §4, §5, §6, §7

KIT, sequence (P10721 26-976): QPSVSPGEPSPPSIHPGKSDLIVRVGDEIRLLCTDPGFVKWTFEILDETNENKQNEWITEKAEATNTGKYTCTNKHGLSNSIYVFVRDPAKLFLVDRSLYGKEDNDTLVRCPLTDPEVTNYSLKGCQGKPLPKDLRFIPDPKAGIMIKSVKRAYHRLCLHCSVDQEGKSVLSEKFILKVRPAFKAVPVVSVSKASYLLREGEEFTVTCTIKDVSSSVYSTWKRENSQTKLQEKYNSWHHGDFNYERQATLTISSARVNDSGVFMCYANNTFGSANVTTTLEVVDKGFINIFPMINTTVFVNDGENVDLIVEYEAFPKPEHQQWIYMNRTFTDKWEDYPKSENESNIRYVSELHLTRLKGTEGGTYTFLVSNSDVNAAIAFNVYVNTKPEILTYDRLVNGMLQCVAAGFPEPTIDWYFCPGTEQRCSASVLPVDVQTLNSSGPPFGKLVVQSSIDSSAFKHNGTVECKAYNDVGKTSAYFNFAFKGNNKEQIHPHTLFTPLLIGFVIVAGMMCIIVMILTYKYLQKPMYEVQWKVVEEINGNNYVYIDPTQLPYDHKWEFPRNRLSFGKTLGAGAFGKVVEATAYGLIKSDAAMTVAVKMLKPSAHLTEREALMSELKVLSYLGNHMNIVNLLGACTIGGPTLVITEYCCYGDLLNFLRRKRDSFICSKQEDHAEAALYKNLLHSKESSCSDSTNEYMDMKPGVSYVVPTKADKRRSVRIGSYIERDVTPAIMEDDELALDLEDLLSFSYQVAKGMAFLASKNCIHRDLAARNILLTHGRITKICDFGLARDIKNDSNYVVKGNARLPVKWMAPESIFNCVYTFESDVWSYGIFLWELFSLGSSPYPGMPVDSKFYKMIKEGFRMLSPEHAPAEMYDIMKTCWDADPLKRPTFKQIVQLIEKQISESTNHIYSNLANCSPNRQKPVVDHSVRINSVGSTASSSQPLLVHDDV
PDGFR-α, sequence (P16234 24-1089): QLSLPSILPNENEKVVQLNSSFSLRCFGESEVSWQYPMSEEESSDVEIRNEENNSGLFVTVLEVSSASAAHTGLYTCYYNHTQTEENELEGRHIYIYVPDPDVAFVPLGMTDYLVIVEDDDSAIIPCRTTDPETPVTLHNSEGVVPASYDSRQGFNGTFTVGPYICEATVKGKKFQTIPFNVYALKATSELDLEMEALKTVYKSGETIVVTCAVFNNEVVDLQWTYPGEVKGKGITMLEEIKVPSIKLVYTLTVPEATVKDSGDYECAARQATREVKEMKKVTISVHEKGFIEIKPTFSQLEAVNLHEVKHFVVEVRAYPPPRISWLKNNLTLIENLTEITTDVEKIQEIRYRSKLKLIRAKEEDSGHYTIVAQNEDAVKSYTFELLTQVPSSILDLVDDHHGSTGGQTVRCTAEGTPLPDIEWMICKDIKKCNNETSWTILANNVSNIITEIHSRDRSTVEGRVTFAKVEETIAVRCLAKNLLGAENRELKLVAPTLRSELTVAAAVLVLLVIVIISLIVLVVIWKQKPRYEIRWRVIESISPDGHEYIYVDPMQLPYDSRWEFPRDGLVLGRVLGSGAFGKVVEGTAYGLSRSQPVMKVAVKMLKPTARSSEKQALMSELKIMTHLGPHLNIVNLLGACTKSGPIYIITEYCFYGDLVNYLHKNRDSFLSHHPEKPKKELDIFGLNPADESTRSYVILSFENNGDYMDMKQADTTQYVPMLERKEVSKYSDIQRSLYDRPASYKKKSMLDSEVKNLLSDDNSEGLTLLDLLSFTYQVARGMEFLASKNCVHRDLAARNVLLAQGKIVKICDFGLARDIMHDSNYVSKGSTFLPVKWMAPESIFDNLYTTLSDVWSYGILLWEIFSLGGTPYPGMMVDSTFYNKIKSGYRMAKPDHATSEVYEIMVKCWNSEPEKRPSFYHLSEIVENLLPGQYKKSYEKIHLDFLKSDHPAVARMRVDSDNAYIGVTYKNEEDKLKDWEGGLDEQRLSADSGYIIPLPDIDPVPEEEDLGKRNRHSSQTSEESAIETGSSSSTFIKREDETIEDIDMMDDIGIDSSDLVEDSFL

Structure (SMILES) | inhibition at 0.01 µM [1] [%] | inhibition at 0.1 µM [1] [%] | inhibition at 0.01 µM [2] [%] | inhibition at 0.1 µM [2] [%]
Cn1cc2ncc(O[C@H]3CCc4c(C(=O)Nc5nn(C)c6ccccc56)cccc43)cc2n1 [Compound 76al] | 97.6 | 97.2 | 91.2 | 95.9
Cn1cc2ncc(O[C@H]3CCc4c(C(=O)Nc5nn(C)c6cccc(F)c56)cccc43)cc2n1 [Compound 76aw] | 88.5 | 102 | 56 | 92.4
Cc1cccc(NC(=O)c2cccc3c2CC[C@@H]3Oc2cnc3cn(C)nc3c2)n1 [Compound 76bd] | 32 | 85.7 | 5.6 | 31.4
CN(c1cnc2cn(C)nc2c1)[C@H]1CCc2c(C(=O)Nc3cncc(Cl)c3)cccc21 [Compound 80k] | 19 | 51.2 | 22 | 47.8
CN(c1cnc2cn(C)nc2c1)[C@H]1CCc2c(C(=O)Nc3nn(C)c4ccccc34)cccc21 [Compound 80l] | 69.1 | 96.9 | 69.9 | 104
Cn1ncc2ncc(N[C@H]3CCc4c(Nc5cc(C(C)(C)C)on5)cccc43)nc21 [Compound 86, (S)—N^4-(5-(tert-butyl)isoxazol-3-yl)-N1-(1-methyl-1H-pyrazolo[3,4-b]pyrazin-6-yl)-2,3-dihydro-1H-indene-1,4-diamine] | 26.8 | 96.5 | 23.4 | 82
